Test results: ChEMBL document CHEMBL4190211, “Biosynthesis of Fluorinated Peptaibols Using a Site-Directed Building Block Incorporation Approach” (J Nat Prod, 2017)
Square brackets hold non-standard residues; d marks the D form. Peptide text beside a SMILES is read from it. * marks the point of attachment. Phe(ol) = N[C@H](CO)Cc1ccccc1; X1 = OC[C@H](Cc1cccc(F)c1)N*; X2 = OC[C@H](Cc1ccccc1F)N*; Aib = CC(C)(N)C(=O)O

Key:
OVCAR-3 = assay: Cytotoxicity against human OVCAR3 cells assessed as decrease in cell viability after 72 hrs by CellTiter 96 AQueous one solution cell proliferation assay; assay type: functional, cell-based; details: OVCAR-3, 72 h
MDA-MB-435 = assay: Cytotoxicity against human MDA-MB-435 cells assessed as decrease in cell viability after 72 hrs by CellTiter 96 AQueous one solution cell proliferation assay; assay type: functional, cell-based; details: MDA-MB-435, 72 h
MDA-MB-231 = assay: Cytotoxicity against human MDA-MB-231 cells assessed as decrease in cell viability after 72 hrs by CellTiter 96 AQueous one solution cell proliferation assay; details: MDA-MB-231, 72 h

SMILES	IC50 (OVCAR-3) [µM]	IC50 (MDA-MB-435) [µM]	IC50 (MDA-MB-231) [µM]
CC(=O)O[C@H]1C(=O)[C@@]2(C)[C@H]([C@H](OC(=O)c3ccccc3)[C@]3(O)C[C@H](OC(=O)[C@H](O)[C@@H](NC(=O)c4ccccc4)c4ccccc4)C(C)=C1C3(C)C)[C@]1(OC(C)=O)CO[C@@H]1C[C@@H]2O [PACLITAXEL]	0.002	–	–
CC(=O)NC(C)(C)C(=O)N[C@@H](C)C(=O)NC(C)(C)C(=O)N[C@@H](C)C(=O)NC(C)(C)C(=O)N[C@@H](C)C(=O)N[C@@H](CCC(N)=O)C(=O)NC(C)(C)C(=O)N[C@H](C(=O)NC(C)(C)C(=O)NCC(=O)N[C@@H](CC(C)C)C(=O)NC(C)(C)C(=O)N1CCC[C@H]1C(=O)N[C@H](C(=O)NC(C)(C)C(=O)NC(C)(C)C(=O)N[C@@H](CCC(N)=O)C(=O)N[C@@H](CCC(N)=O)C(=O)N[C@H](CO)Cc1ccccc1)C(C)C)C(C)C (Ac-[Aib]A[Aib]A[Aib]AQ[Aib]V[Aib]GL[Aib]PV[Aib][Aib]QQ[Phe(ol)])	5.1	4.8	5.1
CC(=O)NC(C)(C)C(=O)N[C@@H](C)C(=O)NC(C)(C)C(=O)N[C@@H](C)C(=O)NC(C)(C)C(=O)N[C@@H](C)C(=O)N[C@@H](CCC(N)=O)C(=O)NC(C)(C)C(=O)N[C@H](C(=O)NC(C)(C)C(=O)NCC(=O)N[C@@H](CC(C)C)C(=O)NC(C)(C)C(=O)N1CCC[C@H]1C(=O)N[C@H](C(=O)NC(C)(C)C(=O)NC(C)(C)C(=O)N[C@@H](CCC(N)=O)C(=O)N[C@@H](CCC(N)=O)C(=O)N[C@H](CO)Cc1cccc(F)c1)C(C)C)C(C)C (Ac-[Aib]A[Aib]A[Aib]AQ[Aib]V[Aib]GL[Aib]PV[Aib][Aib]QQ-X1)	4.4	–	–
CC(=O)NC(C)(C)C(=O)N[C@@H](C)C(=O)NC(C)(C)C(=O)N[C@@H](C)C(=O)NC(C)(C)C(=O)N[C@@H](C)C(=O)N[C@@H](CCC(N)=O)C(=O)NC(C)(C)C(=O)N[C@H](C(=O)NC(C)(C)C(=O)NCC(=O)N[C@@H](CC(C)C)C(=O)NC(C)(C)C(=O)N1CCC[C@H]1C(=O)N[C@H](C(=O)NC(C)(C)C(=O)NC(C)(C)C(=O)N[C@@H](CCC(N)=O)C(=O)N[C@@H](CCC(N)=O)C(=O)N[C@H](CO)Cc1ccccc1F)C(C)C)C(C)C (Ac-[Aib]A[Aib]A[Aib]AQ[Aib]V[Aib]GL[Aib]PV[Aib][Aib]QQ-X2)	5	–	–
